The results in this text go back to US12391672B2, “Solid forms comprising (S)-4-(4-(4-(((2-(2,6-dioxopiperidin-3-yl)-1-oxoisoindolin-4-yl)oxy)methyl)benzyl)piperazin-1-yl)-3-fluorobenzonitrile and salts thereof, and compositions comprising and methods of using the same” (Celgene Corporation, priority 2019, dated 2025).

≈ marks a conversion by molar mass, not a printed value. Some results are limits rather than exact numbers.

Holding throughout (format): physicochemical
A short description of data set [1]: Dynamic vapor sorption / hygroscopicity. Particulars: for hygroscopicity: DVS, class by mass gain at 85% r.h.; for DVS mass increase: relative humidity from about 5% to about 95%. As for the experimental part: Projekt Messtechnik (now ProUmid) SPS11-100n. The sample was placed on an aluminum holder on top of a microbalance and allowed to equilibrate at 50% r.h. before starting one of the following pre-defined humidity programs (1 cycle): • hold 2 h at 50% r.h., • decrease humidity −5% r.h. h^−1 for 10 h (i.e., from 50% r.h. to 0% r.h.), • hold 5 h at […]., • increase humidity +5% r.h. h^−1 for 19 h (i.e., from 0% r.h. to 95% r.h.), • hold 5 h at 95% r.h., • decrease humidity −5% r.h. h^−1 for 9 h (i.e., from 95% r.h. to 50% r.h.), • hold 2 h at 50% r.h. or • hold 2 h at 50% r.h., • increase humidity +5% r.h. h^−1 for 9 h (i.e., from 50% r.h. to 95% r.h.), • hold 5 h at 95% r.h., • decrease humidity −5% r.h. h^−1 for 19 h (i.e., from 95% r.h. to 0% r.h.), • hold 5 h at 0% r.h., • increase humidity +5% r.h. h^−1 for 10 h (i.e., from 0% r.h. to 50% r.h.), • hold 2 h at 50% r.h.
The hygroscopicity was classified based on the mass gain at 85% r.h. relative to the initial mass as follows: deliquescent (sufficient water adsorbed to form a liquid), very hygroscopic (mass increase of […]), hygroscopic (mass increase of <15% but ≥2%), slightly hygroscopic (mass increase of <2% but ≥0.2%), or non-hygroscopic (mass increase of <0.2%).

Data set [2] in a line: Solubility of polymorphic forms in physiologically relevant media and final pH. From the text:
Solubility data of the several polymorphic forms of Compound 1 in physiologically relevant media and the final pH of these solutions are summarized in the following tables.

Data set [3] is described as follows: Mechanical stressing (grinding, compression). Particulars: ground with a mortar and pestle for 2 min; listed as Form A. As for the experimental part:
Mechanical stressing experiment: the following table describes three experiments involving mechanical stressing of Form A and/or Form B of free base Compound 1 by grinding with a mortar and pestle.
Shear Sensitivity: Form K was compressed under 2000 psi for 1 minute and analyzed by XRPD.

Data set [4] can be described thus: Solid state stability under accelerated storage conditions. As for the experimental part:
Form A was not isolated directly as a wet cake but formed only upon drying of Form E in polymorphism studies. […] Small quantities of Form A were generated by dissolving a crude Compound 1 in MEK at high temperature, followed by fast cooling to room temperature, filtration and drying. DSC and TGA data were obtained for samples of Form A and following storage for 1 week at 60° C. and 60° C./75% RH. […] TGA analysis confirmed that this broad endotherm was most likely due to moisture uptake under the accelerated storage conditions. Most of the weight loss of 0.82% in this sample occurred in a single step at less than 75° C. By contrast, weigh loss was a two-step process at the initial time point. […] The residual solvent initially present in the sample was lost upon storage of the sample at 60° C. (0.13% weight loss between 25 to 150° C.).
Form B could be obtained from a process involving methyl acetate. […] HPLC traces were taken of the samples of Form B and following storage for 2 week at 60° C. and 60° C./75% RH. […] Several small degradation products were seen to grow especially in the sample stored at 60° C. Chiral instability was also observed in the sample stored at 60° C./75% RH.
Physical stability: Visually, all samples of Form K were white colored powder with no apparent change in color in the samples stored under accelerated conditions (40° C., 40° C./75% RH, 60° C., 60° C./75% RH and sample stored in light chamber in clear vials exposed to light and covered in aluminum foil) for 14 d relative to the sample stored refrigerated and under ambient conditions.
Solid state chemical stability: HPLC analysis were performed on Form K samples stored under the accelerated stability conditions. […] Based on the HPLC analysis data, there is a measurable but small change in the chemical stability of Form K under the accelerated conditions of temperature, humidity and exposure to light over the 14 d period.
Solid state chiral stability: Chiral stability of Form K samples stored under accelerated stability conditions was tested. There was ˜2.9% of the R-enantiomer (97.1 area % of the active S-isomer) in the initial sample. […]
The chiral purity (area % of S-isomer) remained […] under the accelerated stability conditions.

Data set [5] is described as follows: Competitive slurry and slurry stability experiments. Particulars: water, prolonged stirring. As for the experimental part:
Form B was obtained at room temperature while form C was obtained at 45° C. in acetone alone.
The HBr salt was largely insoluble in various buffers when 1 mg/mL slurries were prepared and the mother liquor concentration determined (by HPLC): <0.05 mg/mL in all buffers tested.

The nature of data set [6]: Thermal treatment / racemization on heating. Particulars: N2 flow, 200° C. held for several minutes, cooled quickly. As for the experimental part:
Thermal treatment of solid forms: the following table summarizes two experiments carried out using solvent-free thermal treatment of forms of Compound 1. The goal of these experiments was to determine whether the endotherm at 225° C. observed in many DSC experiments corresponded to the melting of the racemate of Compound 1 or whether it was a polymorphic form of Compound 1. Two experiments involved generation of different solid forms of Compound 1, the amorphous form and Form E. The resulting products were subsequently heated to temperatures where exothermic events had been observed in DSC thermograms. Both experiments confirmed that the racemate was generated by heating.
Racemization of Compound 1 during the DSC analysis was confirmed by heating the samples to various temperatures and analyzing these samples by a chiral HPLC method as well as by comparison of the melting point with a pure sample of the racemate of Compound 1. Upon heating the sample to 160° C., the chiral purity was essentially unchanged (96.1 area % at 160° C. vs. 97.1% initial). This supports the interpretation of the sharp endotherm seen in the DSC thermogram at about 152.6° C. as the melt of the enantiomer. Between 160-218° C. a gradual conversion of the enantiomer to the racemate occurs along with the recrystallization of the racemate. This explains the unsteady baseline over this temperature range and the small broad endotherm observed at about 197.1° C. […] This melting point matches the peak melting point (about 225.6° C.) of the pure racemate of Compound 1.

Regarding `N#Cc1ccc(N2CCN(Cc3ccc(COc4cccc5c4CN([C@H]4CCC(=O)NC4=O)C5=O)cc3)CC2)c(F)c1` [Form A of a free base of Compound 1], the hygroscopicity entry in data set [1] (listed as Form A) was “slightly hygroscopic (slightly hygroscopic (mass increase of <2% but ≥0.2%))”. Also, in data set [1] (listed as Form A), the DVS mass increase entry was “about 2.4%”. The Solubility in data set [2] (FeSSiF, listed as Form A) came to 86 µg/mL (≈ 152 µM); in data set [2] (SGF with pepsin, listed as Form A), 429 µg/mL (≈ 756 µM); in data set [2] (pH 1 buffer HC1/NaC1, listed as Form A), 88 µg/mL (≈ 155 µM); in data set [2] (pH 3 buffer (phosphate), listed as Form A) it was 280 µg/mL (≈ 493 µM); in data set [2] (pH 4 buffer (acetate), listed as Form A) it was 159 µg/mL (≈ 280 µM); in data set [2] (pH 5 buffer (acetate), listed as Form A), 8 µg/mL (≈ 14.1 µM). Further, the “Final pH” value in data set [2] (solubility sample in FaSSIF, listed as Form A) was determined as 6.44; in data set [2] (solubility sample in FeSSiF, listed as Form A) it was 5.05; in data set [2] (solubility sample in SGF with pepsin, listed as Form A), 1.34; in data set [2] (solubility sample in Water, listed as Form A) it was 6.77; in data set [2] (solubility sample in pH 1 buffer HC1/NaC1, listed as Form A), 1.14; in data set [2] (solubility sample in pH 3 buffer (phosphate), listed as Form A), 3.70. Further, the “Final pH” value was 4.11 in data set [2] (solubility sample in pH 4 buffer (acetate), listed as Form A) and 5.03 in data set [2] (solubility sample in pH 5 buffer (acetate), listed as Form A). Further, the “PXRD result after mechanical treatment” value in data set [3] was “no change in polymorphic form;”. Also, the “DSC trace after storage” value in data set [4] (1 week at 60° C.) was “quite similar to the initial condition”. Also, in data set [4] (1 week at 60° C./75% RH), the “physical form after storage (DSC, TGA)” value was “changes in physical form were observed”.
For the molecule `N#Cc1ccc(N2CCN(Cc3ccc(COc4cccc5c4CN([C@H]4CCC(=O)NC4=O)C5=O)cc3)CC2)c(F)c1` [Form C of a free base of Compound 1], the “competitive slurry of Form C and Form K” value in data set [5] is “gradual conversion of Form C to Form K”. The hygroscopicity result in data set [1] (listed as Form C) is “hygroscopic (hygroscopic (mass increase of <15% but ≥2%))”. Besides, in data set [1] (listed as Form C), the DVS mass increase result is given as “about 8.3%”. The Solubility in data set [2] (FaSSIF) is 1 µg/mL (≈ 1.76 µM); in data set [2] (FeSSiF, listed as Form C), 31 µg/mL (≈ 54.6 µM); in data set [2] (SGF with pepsin, listed as Form C), 427 µg/mL (≈ 752 µM); in data set [2] (Water), “<LOQ”; in data set [2] (pH 1 buffer HC1/NaC1, listed as Form C), 108 µg/mL (≈ 190 µM); in data set [2] (pH 3 buffer (phosphate), listed as Form C), 277 µg/mL (≈ 488 µM). For the same molecule, the Solubility worked out at 65 µg/mL (≈ 115 µM) in data set [2] (pH 4 buffer (acetate), listed as Form C) and 3 µg/mL (≈ 5.29 µM) in data set [2] (pH 5 buffer (acetate), listed as Form C). Also, the “Final pH” value in data set [2] (solubility sample in FaSSIF, listed as Form C) is recorded as 6.44; in data set [2] (solubility sample in FeSSiF, listed as Form C), 5.05; in data set [2] (solubility sample in SGF with pepsin, listed as Form C) it was 1.29; in data set [2] (solubility sample in Water, listed as Form C) it was 6.86; in data set [2] (solubility sample in pH 1 buffer HC1/NaC1, listed as Form C), 1.07; in data set [2] (solubility sample in pH 3 buffer (phosphate), listed as Form C), 3.31. In addition, the “Final pH” value in data set [2] (solubility sample in pH 4 buffer (acetate), listed as Form C) came to 4.14; in data set [2] (solubility sample in pH 5 buffer (acetate), listed as Form C) it was 5.11. Also, the “physical and chemical stability” value in data set [4] (accelerated stability conditions) is “physically and chemically stable”.
As for `N#Cc1ccc(N2CCN(Cc3ccc(COc4cccc5c4CN([C@H]4CCC(=O)NC4=O)C5=O)cc3)CC2)c(F)c1` [Form E of a free base of Compound 1], the “solid form after DVS cycle” value in data set [1] (after the DVS humidity cycle, listed as Form E) is on record as “primarily amorphous material”. In addition, the “PXRD result after thermal treatment” value in data set [6] is “racemate”.
